Data published in patent US9198913B2, “Nitroimidazooxazines and their uses in anti-tubercular therapy” (priority 2009, dated 2015).
Values after ≈ are worked out from the molar mass of the structure shown.

What was measured:
[1] = Water solubility (sonicated suspension, HPLC); assay type: physicochemical; settings: in water; for solubility at 15 min: thermodynamic from solid;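 on all read-outs here: concentration in the clear supernatant quantified by HPLC peak area against a DMSO standard solution of the same compound, corrected for dilution and injection volume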
[2] = Stability to human liver microsomes; assay type: in vitro ADME; settings: 1 μM, 37° C., 60 min, pooled human liver microsomes;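 further: parent compound quantified by LC-MS/MS against an internal standard, duplicates averaged, expressed relative to the 0 min sample taken as 100%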
[3] = Stability to mouse liver microsomes; assay type: in vitro ADME; settings: 1 μM, 37° C., 60 min, CD-1 mouse liver microsomes;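 further: analyte quantified by LC-MS/MS as ratio to internal standard peak area, mean of duplicates, 60 min value expressed relative to the 0 min level (100%)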
[4] = In vivo pharmacokinetics in mice; settings: CD-1 mice, oral, 40 mg/kg; for Cmax / half-life / Kp: mouse; for Cmax / half-life: in vivo, plasma; for half-life: read-out: t½ (h) plasma (converted); for Kp: lung/plasma, read-out: AUC ratio (lung/plasma);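 on all read-outs here: plasma and lung samples quantified by LC-MS/MS, dosing as a suspension in aqueous carboxymethylcellulose with Tween 80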
M. tuberculosis Erdman [5] = assay: In vivo mouse chronic TB infection assay; parameters: species or system Mycobacterium tuberculosis; settings: mice, oral 100 mg/kg, treatment beginning ~70 days after infection
M. tuberculosis Erdman [6] = assay: In vivo mouse acute TB infection assay; parameters: species or system Mycobacterium tuberculosis; settings: BALB/c mice; for In vivo efficacy vs PA-824, Acute: oral 100 mg/kg daily 5 days a week for 3 weeks from day 11 post-infection, ratio of average lung CFU reduction to that with PA-824

Structure (SMILES)	solubility at 15 min [1]	Microsomes (% remaining, 1 h) Human [2]	Microsomes (% remaining, 1 h) Mouse [3]	AUC lung [4]	Cmax [4]	half-life [4]	melting point	Solubility [1]	Kp [4]	In vivo efficacy vs PA-824, Chronic (M. tuberculosis Erdman [5]; ratio of average lung CFU reduction to that with PA-824)	In vivo efficacy vs PA-824, Acute (M. tuberculosis Erdman [6])	log reductions in CFU (acute assay) (M. tuberculosis Erdman [6]; oral 100 mg/kg, lungs, vs vehicle, 'up to')	log reduction in CFU (chronic assay) (M. tuberculosis Erdman [5])
O=[N+]([O-])c1cn2c(n1)OC[C@@H](OCc1ccc(-c3ccc(OC(F)(F)F)c(F)c3)cc1)C2 [Compound 2, (6S)-6-{[3′-Fluoro-4′-(trifluoromethoxy)[1,1′-biphenyl]-4-yl]methoxy}-2-nitro-6,7-dihydro-5H-imidazo[2,1-b][1,3]oxazine]	0.1 µg/mL (≈ 0.221 µM)	93%	86%	>513 µg·h/mL	17100 ng/mL	20.5 h	169 to 171 °C						
O=[N+]([O-])c1cn2c(n1)OC[C@@H](OCc1ccc(-c3ccc(C(F)(F)F)cn3)cc1)C2 [Compound 8, (6S)-2-Nitro-6-({4-[5-(trifluoromethyl)-2-pyridinyl]benzyl}oxy)-6,7-dihydro-5H-imidazo[2,1-b][1,3]oxazine]		93%	90%	67.3 µg·h/mL			252 to 254 °C	0.20 µg/mL (≈ 0.476 µM)	3.3				
Cn1nc(-c2ccc(OC(F)(F)F)cc2)cc1CO[C@@H]1COc2nc([N+](=O)[O-])cn2C1 [Compound 11, (6S)-6-({1-Methyl-3-[4-(trifluoromethoxy)phenyl]-1H-pyrazol-5-yl}methoxy)-2-nitro-6,7-dihydro-5H-imidazo[2,1-b][1,3]oxazine]	5.3 µg/mL (≈ 12.1 µM)	86%	81%	92.4 µg·h/mL	1660 ng/mL	6.6 h			4.7	0.9			
O=[N+]([O-])c1cn2c(n1)OC[C@@H](OCc1ccc(-c3ccc(OC(F)(F)F)cc3)cc1F)C2 [Compound 12, (6S)-6-{[3-Fluoro-4′-(trifluoromethoxy)[1,1′-biphenyl]-4-yl]methoxy}-2-nitro-6,7-dihydro-5H-imidazo[2,1-b][1,3]oxazine]	1.4 µg/mL (≈ 3.09 µM)	93%	85%	549 µg·h/mL		22 h	160 to 162 °C		2.7		33		
O=[N+]([O-])c1cn2c(n1)OC[C@@H](OCc1ccc(-c3ccc(C(F)(F)F)cn3)cc1F)C2 [Compound 14, (6S)-6-({2-Fluoro-4-[5-(trifluoromethyl)-2-pyridinyl]benzyl}oxy)-2-nitro-6,7-dihydro-5H-imidazo[2,1-b][1,3]oxazine]	1.2 µg/mL (≈ 2.74 µM)	90%	77%	148 µg·h/mL	440 ng/mL	13.9 h	233 to 235 °C		16				
O=[N+]([O-])c1cn2c(n1)OC[C@@H](OCc1cnc(-c3ccc(OC(F)(F)F)cc3)nc1)C2 [Compound 16, (6S)-2-Nitro-6-({2-[4-(trifluoromethoxy)phenyl]-5-pyrimidinyl}methoxy)-6,7-dihydro-5H-imidazo[2,1-b][1,3]oxazine]		96%	87%	131 µg·h/mL	1160 ng/mL	23.1 h	227 to 230 °C	2.1 µg/mL (≈ 4.8 µM)					
O=C(O[C@@H]1COc2nc([N+](=O)[O-])cn2C1)N1CCN(c2ccc(OC(F)(F)F)cc2)CC1 [Compound 20, (6S)-2-Nitro-6,7-dihydro-5H-imidazo[2,1-b][1,3]oxazin-6-yl 4-[4-(trifluoromethoxy)phenyl]-1-piperazinecarboxylate]	17 µg/mL (≈ 37.2 µM)	82%	85%	169 µg·h/mL			166 to 168 °C						
O=[N+]([O-])c1cn2c(n1)OC[C@@H](OCc1ccc(-c3ccc(OC(F)(F)F)c(F)c3)cn1)C2 [Compound 22, (6S)-6-({5-[3-Fluoro-4-(trifluoromethoxy)phenyl]-2-pyridinyl}methoxy)-2-nitro-6,7-dihydro-5H-imidazo[2,1-b][1,3]oxazine]		97%	86%	155 µg·h/mL			182 to 184 °C	30 µg/mL (≈ 66 µM)	1.1				
O=[N+]([O-])c1cn2c(n1)OC[C@@H](OCc1ccc(-c3ccc(C(F)(F)F)nc3)cc1F)C2 [Compound 23, (6S)-6-({2-Fluoro-4-[6-(trifluoromethyl)-3-pyridinyl]benzyl}oxy)-2-nitro-6,7-dihydro-5H-imidazo[2,1-b][1,3]oxazine]	5.7 µg/mL (≈ 13 µM)	96%	78%	55.4 µg·h/mL	1560 ng/mL	4.9 h	195 to 198 °C		2.5				
O=[N+]([O-])c1cn2c(n1)OC[C@@H](OCc1ccc(-c3ccc(OC(F)(F)F)cc3)nn1)C2 [Compound 24, (6S)-2-Nitro-6-({6-[4-(trifluoromethoxy)phenyl]-3-pyridazinyl}methoxy)-6,7-dihydro-5H-imidazo[2,1-b][1,3]oxazine]		94%	92%	93.9 µg·h/mL	3560 ng/mL		194 °C (dec.)	6.1 µg/mL (≈ 13.9 µM)					
O=[N+]([O-])c1cn2c(n1)OC[C@@H](OCc1ccc(-c3ccc(OC(F)(F)F)c(Cl)c3)nc1)C2 [Compound 28, (6S)-6-({6-[3-Chloro-4-(trifluoromethoxy)phenyl]-3-pyridinyl}methoxy)-2-nitro-6,7-dihydro-5H-imidazo[2,1-b][1,3]oxazine]		87%	77%	284 µg·h/mL	2890 ng/mL	21.7 h	169 to 171 °C	0.18 µg/mL (≈ 0.382 µM)					
O=[N+]([O-])c1cn2c(n1)OC[C@@H](OCC#Cc1ccc(-c3ccc(OC(F)(F)F)cc3)cc1)C2 [Compound 30, (6S)-2-Nitro-6-({3-[4′-(trifluoromethoxy)[1,1′-biphenyl]-4-yl]-2-propynyl}oxy)-6,7-dihydro-5H-imidazo[2,1-b][1,3]oxazine]		93%	85%	13.6 µg·h/mL			192 to 194 °C	0.07 µg/mL (≈ 0.152 µM)	1.4		89		
O=[N+]([O-])c1cn2c(n1)OC[C@@H](OCc1ccc(OC(F)(F)F)cc1)C2 [PA-824, reference compound]		82%		296 µg·h/mL	5500 ng/mL	4.2 h			3.8			2.5-3 log	~2 log
